The values below are quoted from earlier work in patent publication US5929038A, “Pharmaceutical preparations which inhibit hepatitis B virus (HBV) replication” (Choongwae Pharmaceutical Co., Ltd., priority 1992, dated 1999).

The data set has as its system hepatitis B (HBV infection). Conditions: cited from earlier work.

Molecules are shown by their SMILES.

As for `Nc1ncnc2c1ncn2[C@@H]1O[C@H](COP(=O)(O)O)[C@@H](O)[C@@H]1O` [ara-AMP, reference compound], the “suppression of HBV infection” value (clinical use) was “transiently suppress HBV infection”. Besides, for the setting “in vivo”, the toxicities entry is “often serious toxicities”.
